Assay results as given in ChEMBL document CHEMBL2074381, “Pharmacokinetic and prognostic significance of intestinal MDR1 expression in recipients of living-donor liver transplantation” (Clin Pharmacol Ther, 2001).

Molecular target: ATP-dependent translocase ABCB1 (Homo sapiens, UniProt P08183)
Assay: TP_TRANSPORTER: mRNA expression level of MDR1 was inversely related to the concentration/dose ratio in vivo, recipients of living-donor liver transplantation
Assay type: functional, organism-based

Sequence of ATP-dependent translocase ABCB1 (P08183 whole entry): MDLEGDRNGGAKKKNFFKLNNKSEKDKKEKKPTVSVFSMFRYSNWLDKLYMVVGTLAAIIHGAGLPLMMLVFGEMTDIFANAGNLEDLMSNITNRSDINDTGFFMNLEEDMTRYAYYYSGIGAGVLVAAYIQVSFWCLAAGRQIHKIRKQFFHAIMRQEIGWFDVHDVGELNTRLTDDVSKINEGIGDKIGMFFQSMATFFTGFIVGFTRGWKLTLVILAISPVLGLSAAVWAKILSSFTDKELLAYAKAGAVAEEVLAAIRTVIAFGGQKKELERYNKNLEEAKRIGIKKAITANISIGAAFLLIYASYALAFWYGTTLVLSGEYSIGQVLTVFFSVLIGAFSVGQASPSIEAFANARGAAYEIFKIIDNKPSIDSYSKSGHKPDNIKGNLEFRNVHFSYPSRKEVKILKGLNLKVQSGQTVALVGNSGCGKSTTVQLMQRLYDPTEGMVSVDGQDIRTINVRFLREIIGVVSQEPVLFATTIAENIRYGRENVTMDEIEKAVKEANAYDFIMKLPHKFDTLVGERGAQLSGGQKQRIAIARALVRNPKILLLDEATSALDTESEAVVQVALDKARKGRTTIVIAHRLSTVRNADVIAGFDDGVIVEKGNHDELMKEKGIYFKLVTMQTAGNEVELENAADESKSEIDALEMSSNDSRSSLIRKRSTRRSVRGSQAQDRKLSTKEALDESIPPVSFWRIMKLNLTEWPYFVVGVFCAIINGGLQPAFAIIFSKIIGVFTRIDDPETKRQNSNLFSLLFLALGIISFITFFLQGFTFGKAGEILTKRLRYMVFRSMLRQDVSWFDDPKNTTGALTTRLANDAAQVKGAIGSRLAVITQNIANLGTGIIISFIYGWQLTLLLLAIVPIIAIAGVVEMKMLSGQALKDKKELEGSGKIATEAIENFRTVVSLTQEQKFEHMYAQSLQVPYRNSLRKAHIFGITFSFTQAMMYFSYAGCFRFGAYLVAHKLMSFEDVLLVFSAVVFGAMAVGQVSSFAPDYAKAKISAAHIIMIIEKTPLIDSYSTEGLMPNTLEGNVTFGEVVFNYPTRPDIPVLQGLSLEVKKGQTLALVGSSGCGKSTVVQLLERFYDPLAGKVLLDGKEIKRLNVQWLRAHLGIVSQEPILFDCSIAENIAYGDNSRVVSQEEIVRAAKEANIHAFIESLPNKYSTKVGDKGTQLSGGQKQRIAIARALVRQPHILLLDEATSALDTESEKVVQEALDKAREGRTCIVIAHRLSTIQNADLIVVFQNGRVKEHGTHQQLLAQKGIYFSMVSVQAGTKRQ

In the case of `C=CC[C@@H]1/C=C(\C)C[C@H](C)C[C@H](OC)[C@H]2O[C@@](O)(C(=O)C(=O)N3CCCC[C@H]3C(=O)O[C@H](/C(C)=C/[C@@H]3CC[C@@H](O)[C@H](OC)C3)[C@H](C)[C@@H](O)CC1=O)[C@H](C)C[C@@H]2OC` [TACROLIMUS ANHYDROUS], the Activity is reported as “substrate [+]”.
